Experimental data reported in patent US11083743B2, “DNA hypomethylating agents for cancer therapy” (priority 2013, dated 2021).

Legend:
[1] = tested on: P1A promoter; assay: qMSP analysis of P1A promoter methylation in excised tumor tissues; assay type: in vivo, murine; details: FIG. 3; tumors excised one week after end of first cycle (day 8)
Method: Mice were sc injected in the flank region with TS/A cells (2×10^5) resuspended in 0.1 ml of physiologic saline. […] Control mice were ip injected with 0.2 ml of saline solution. Animals were weekly monitored for changes in the tumor size or sacrificed by CO2 overdose; for the latter, tumor tissues were surgically removed, and each specimen, divided under sterile conditions, were snap-frozen in liquid nitrogen and stored at -80° C. until used for RNA and DNA extraction. RNA and DNA were extracted from tissues sections, removed from control and treated mice one week after the end of the first cycle treatment (day 8) and homogenized with the aid of Tissue Lyser II (QIAGEN) in Trizol reagent or lysis buffer, respectively. Total RNA was extracted following the manufacturer's instructions and stored at -80° C. Total genomic DNA was extracted by digestion with 100 μg/ml proteinase K in the presence of 0.5% SDS at 50° C. overnight, followed by phenol/chloroform extraction and ethanol precipitation. Genomic DNA was eluted in TE buffer and stored at -20° C. […] Primers for the analysis of the methylation status of […], designed using the free on-line software MethPrimer (Li L C and […] Bioinformatics 2002; 18:1427-31), were: […] (Methylated), forward [NT] ID No. 5), reverse [NT] ID No. 6); […] (Unmethylated), forward [NT] ID No. 7), reverse [NT] ID No. 8). […]

[2] = tested on: murine CTA (P1A, Mage-a family); assay: RT-PCR analysis of murine CTA expression in excised tumor tissues; assay type: in vivo; details: FIG. 4, tumors excised one week after end of first cycle
Method: Mice were sc injected in the flank region with TS/A cells (2×10^5) resuspended in 0.1 ml of physiologic saline. […] Control mice were ip injected with 0.2 ml of saline solution. Animals were weekly monitored for changes in the tumor size or sacrificed by CO2 overdose; for the latter, tumor tissues were surgically removed, and each specimen, divided under sterile conditions, were snap-frozen in liquid nitrogen and stored at -80° C. until used for RNA and DNA extraction. RNA and DNA were extracted from tissues sections, removed from control and treated mice one week after the end of the first cycle treatment (day 8) and homogenized with the aid of Tissue Lyser II (QIAGEN) in Trizol reagent or lysis buffer, respectively. Total RNA was extracted following the manufacturer's instructions and stored at -80° C. Total genomic DNA was extracted by digestion with 100 μg/ml proteinase K in the presence of 0.5% SDS at 50° C. overnight, followed by phenol/chloroform extraction and ethanol precipitation. Genomic DNA was eluted in TE buffer and stored at -20° C. RT-PCR reactions were performed using oligonucleotide primer sequences and PCR amplification programs specific for […] and Mage-a family (Coral S, Covre A et al, Br J Cancer. 2012 Sep. 25; 107(7):1116-24). […]

[3] = tested on: tumour; assay: Histology and immunohistochemistry of surgically-excised tumors from treated mice; assay type: in vivo
[4] = tested on: MHC class I antigens; assay: MHC class I antigen expression on tumours of treated mice; assay type: in vivo
[5] = tested on: TS/A cells; assay: Anti-tumor activity on TS/A tumor grafts in T cell-deficient athymic nude mice; assay type: in vivo; details: FIG. 6A, first cycle only
Method: (§1) Six-week-old female BALB/c, athymic nude and SCID/Beige mice were obtained from Harlan laboratories (Udine, Italy). Animal care and use were in accordance with Institutional guidelines and the indications of Workman et al. (Workman P, et al. Br J Cancer. 2010 May 25; 102(11): 1555-1577).
(§2) Mice were sc injected in the flank region with TS/A cells (2×10^5) resuspended in 0.1 ml of physiologic saline. Animals were examined daily and after a latency period of 1 week, mice bearing clearly palpable and visible tumor grafts (diameter≥0.2 cm) were ip injected with 0.2 ml/injection of i) 15 mg/kg/day of 5-AZA-CdR, three times a day every three hours on days 0 and 7 and on days 42 and 49 for the 2nd cycle of treatment; ii) 100 μg/mouse of anti-CTLA-4 mAb, on days 2, 5 and 8 and on days 44, 47 and 50 for the 2nd cycle of treatment; iii) 100 μg/mouse of anti-PDL-1 mAb on days 2, 5 and 8; iv) combined administration of 5-AZA-CdR and anti-CTLA-4 mAb according to the above reported schedules or; v) combined administration of 5-AZA-CdR and anti-PDL-1 mAb according to the above reported schedules. […] Animals were weekly monitored for changes in the tumor size or sacrificed by CO2 overdose; for the latter, tumor tissues were surgically removed, and each specimen, divided under sterile conditions, were snap-frozen in liquid nitrogen and stored at −80° C. until used for RNA and DNA extraction.

[6] = tested on: TS/A cells; assay: Anti-tumor activity on TS/A tumor grafts in SCID/Beige mice; assay type: in vivo; details: FIG. 6B, first cycle only
Method: as §1, §2

[7] = tested on: P1A; assay: Real-time quantitative RT-PCR of P1A expression in excised tumor tissues; assay type: in vivo, murine; details: FIG. 5; normalized to β-actin
Method: Mice were sc injected in the flank region with TS/A cells (2×10^5) resuspended in 0.1 ml of physiologic saline. […] Control mice were ip injected with 0.2 ml of saline solution. Animals were weekly monitored for changes in the tumor size or sacrificed by CO2 overdose; for the latter, tumor tissues were surgically removed, and each specimen, divided under sterile conditions, were snap-frozen in liquid nitrogen and stored at -80° C. until used for RNA and DNA extraction. RNA and DNA were extracted from tissues sections, removed from control and treated mice one week after the end of the first cycle treatment (day 8) and homogenized with the aid of Tissue Lyser II (QIAGEN) in Trizol reagent or lysis buffer, respectively. Total RNA was extracted following the manufacturer's instructions and stored at -80° C. […] Real-time quantitative RT-PCR analyses were performed as previously described (Calabro L, et al., J Cell Physiol 2005; 202:474-7) Briefly, total RNA was digested with RNAse-free DNAse (Roche Diagnostics), to remove contaminating genomic DNA. […] Measurement of gene expression was performed utilizing the ABI prism 7000 Sequence Detection System (Applied Biosystems), as previously described (Calabro L, et al., J Cell Physiol 2005; 202:474-7). cDNA standards were obtained by RT-PCR amplification of the specific mRNAs and quantitated by NanoDrop® ND-1000 UV-Vis Spectrophotometer. […]

[8] = tested on: TS/A cells; assay: Anti-tumor activity on TS/A tumor grafts in syngeneic BALB/c mice (caliper tumor volume); assay type: in vivo; details: FIG. 1
Method: Primary cultures of murine mammary carcinoma cells TS/A were grown in DMEM Medium supplemented with 10% heat-inactivated FCS (Lonza), 2 mM L-glutamine (Biochrom AG) and 50 μM β-mercaptoethanol. Six-week-old female BALB/c, athymic nude and SCID/Beige mice were obtained from Harlan laboratories (Udine, Italy). Animal care and use were in accordance with Institutional guidelines and the indications of Workman et al. (Workman P, et al. Br J Cancer. 2010 May 25; 102(11): 1555-1577). Mice were sc injected in the flank region with TS/A cells (2×10^5) resuspended in 0.1 ml of physiologic saline. […] Control mice were ip injected with 0.2 ml of saline solution. Animals were weekly monitored for changes in the tumor size or sacrificed by CO2 overdose; for the latter, tumor tissues were surgically removed, and each specimen, divided under sterile conditions, were snap-frozen in liquid nitrogen and stored at −80° C. until used for RNA and DNA extraction. In vivo tolerability was evaluated by measurements of body weight and mortality rate. The antiproliferative activity of the drug was evaluated by caliper measurements of tumor mass. Body weight and tumor size measurements were recorded periodically, all along the treatment. Tumor volumes (TV) were calculated as follows: TV=LD^2/2 (in which L is the longest diameter and D the shortest one).

Question: With `Nc1ncn([C@H]2C[C@H](O)[C@@H](CO)O2)c(=O)n1` [5-AZA-CdR, 5-aza-2′-deoxycytidine] as the compound, how does the “constitutive methylation levels of P1A promoter in cancer tissues vs control mice” value [1] read?
Answer: significant (p<0.05) reduction

Question: What about the “expression of P1A and Mage-a members in tumor tissues” value [2] of the same compound?
Answer: strong de novo expression

Question: What about the “lymphocyte infiltration into the tumour” value [3] of the same compound?
Answer: neither induces lymphocyte infiltration

Question: What about the tumour necrosis [3] of the same compound?
Answer: does not induce tumour necrosis

Question: What about the “constitutive expression of MHC class I antigens on tumours” value [4] of the same compound?
Answer: increases

Question: What about the tumor growth [5] of the same compound?
Answer: significantly (p<0.05 and p<0.01) reduced tumor growth

Question: And the tumor growth [6]?
Answer: significantly (p<0.05 and p<0.01) reduced tumor growth

Question: What about the “levels of P1A-specific mRNA expression, 5-AZA-CdR alone compared with combination” value [7] of the same compound?
Answer: similar

Question: And the tumor growth inhibition ([8]; day 15, vs control mice)?
Answer: 40.7%

Question: And the tumor growth inhibition ([8]; day 35, vs control mice)?
Answer: 67.6%
